Test results published in patent US5624911A, “Ether derivatives of pseudopterosin” (The Regents of the University of California, priority 1995, dated 1997).
Like-named read-outs stand apart in the source and are kept apart here.

How the values were obtained:
[1] = system: edema induced by phorbol 12-myristate 13-acetate (PMA) in ears of mice; test: Mouse Ear Edema Assay (PMA-induced edema, topical); format: in vivo; conditions: for % Inhibition (of edema relative to PMA control) / Mean Edema (mgs ± SEM): topical, 50 μg/ear with PMA 2 μg/ear, 3 hours 20 minutes; for Mean Edema (mgs ± SEM): PMA controls 17.7 ± 0.6
Experimental: The pseudopterosin ethers were topically applied in acetone to the inside pinnae of the ears of mice in a solution containing the edema-causing irritant, phorbol 12-myristate 13-acetate (PMA). PMA alone (2 μg/ear) or in combination with 50 μg/ear of test compound was applied to the left ears (5 mice per treatment group) and acetone is applied to all right ears. After 3 hours 20 minutes incubation, the mice were sacrificed, the ears removed, and bores taken and weighed. Edema was measured by subtracting the weight of the right ear (acetone control) from the weight of the left ear (treated). Results were recorded as percent decrease (inhibition) or percent increase (potentiation) in edema relative to the PMA control group edema.

[2] = system: bovine articular cartilage explants; test: Inhibition of IL-1-induced Cartilage Degradation in the Presence of Human Plasminogen (35S glycosaminoglycan release); format: cell-based, bovine (calf); conditions: for % Inhibition @ 30 μM (Explant) / IC50: plasminogen 0.4 μM plus IL-1 0.5 ng/mL, 96 hours; for IC50: explant
Experimental: (§1) The ether derivatives were also tested to determine their usefulness in inhibiting degradation of cartilage. Bovine articular cartilage explants labeled with ^35 Sulfate were used to monitor chondrocyte-mediated cartilage degradation in the presence of plasminogen, at concentrations similar to that measured in synovial fluid (0.4 μM), cartilage is extremely sensitive to the effects of IL-1-stimulated degradation. Stimulated chondrocytes produce and activate plasminogen activator (uPA), causing conversion of plasminogen to plasmin. Plasmin is not only an effective activator of the MMP's, but also an effective proteoglycanase. Inhibitors were added to the assay concomitant with the cytokine IL-1, and their effect was monitored by measuring differences in ^35 S glycosaminoglycan release, as compared to appropriate controls.
(§2) Plasminogen (from human plasma) was obtained from Athens Research and Technology, Athens, Ga. Recombinant Human Interleukin-1-α was obtained from R&D Systems, Minneapolis, Minn. DMEM was obtained from Gibco, Grand Island, New York. ^35 S-Sodium Sulfate was obtained from Amersham, Arlington Heights, Ill.
(§3) Bovine (calf) radiocarpal joints were acquired from a local abbatoir immediately after sacrifice and transported on ice. The joints were then washed thoroughly and placed in ice containing approximately 25% Povidine (10% Povidone-lodine topical solution). The joints were then dissected in a sterile hood using good sterile technique. Media (DMEM containing 4.5 g/L D-Glucose and L-Glutamine, without sodium pyruvate) was supplemented with HEPES buffer and sodium bicarbonate, and the pH adjusted to 7.4. The media was further supplemented with penicillin and streptomycin (100 units/mL and 100 μg/ml, respectively) and 50 μg/mL L-ascorbic acid. The cartilage surfaces were exposed, and the synovial fluid was wiped away with sterile gauze. A sterile cork-borer with a diameter of 3.5 millimeters was used to remove uniform plugs of cartilage. Proper orientation was maintained by distinguishing the underlying bony layer in the plugs (only the articulating surface of the cartilage plugs were used in the experiments). The plugs were placed in a sterile flask, washed four times with 50 mL of fresh media, and then placed in an incubator (37 degrees centigrade, with 5% CO2 /95% air, with adequate humidity) and allowed to equilibrate for 1 hour. A 1 mm thick slice of the articulating surface was sliced off of each individual cartilage plug, using a specially designed template to obtain uniform thickness. The cartilage disks were then labeled en mass with ^35 Sulfate at a concentration of approximately 10 μCi/mL for approximately 72-96 hours, with hand-stirring every few hours. Subsequent to labeling, explants were equilibrated with fresh media each 48 hours. The total time for labeling/equilibration was approximately one week from acquisition/dissection of tissue.
(§4) For testing of ether derivatives, individual explants were transferred to 96-well plates containing 250μL of media with or without Plasminogen plus IL-1, and with or without ether derivative. […] All other groups in any assay would contain ether derivative along with concomitant plasminogen plus IL-1. Five samples were routinely used, with concentrations of plasminogen plus IL-1 of 0.4 μM and 0.5 ng/mL, respectively. The assay is allowed to incubate for 96 hours, prior to counting a 50 μL sample of supernatant from each well. A 50 μL sample of a papain digest of each explant is also counted for each respective well. From the counts released into the supernatant over four days, and the total counts present, the data can be expressed as % glycosaminoglycan (GAG) over the four days). The media alone % GAG release values are subtracted from all other values where plasminogen plus IL-1 were present (media alone represents the background for the system). […]

[3] = system: bovine articular cartilage explants; test: Interleukin-1 mediated cartilage degradation, with or without plasminogen (35S-GAG release); format: cell-based, bovine (calf); conditions: for degradation by plasminogen alone (in words): 0.4 μM human plasminogen alone
Experimental: as §1, §2, §3, §4

CC(C)=C[C@H]1C[C@H](C)[C@H]2CC[C@H](C)c3c(O[C@@H]4OC[C@@H](O)[C@H](O)[C@H]4O)c(OCc4ccccc4)c(C)c1c32 [WF 332, Pseudopterosin A Benzyl ether]
% Inhibition (of edema relative to PMA control) [1]: 68.3%
Mean Edema (mgs ± SEM) [1]: 5.6 ± 1.0 mgs
% Inhibition @ 30 μM (Explant) [2]: 57%
IC50 ([2]; Bos taurus, read-out: IC50): 26 µM

CCCCCOc1c(C)c2c3c(c1O[C@@H]1OC[C@@H](O)[C@H](O)[C@H]1O)[C@@H](C)CC[C@@H]3[C@@H](C)C[C@@H]2C=C(C)C [WF 333, Pseudopterosin A Pentyl ether]
% Inhibition (of edema relative to PMA control) [1]: 62.2%
Mean Edema (mgs ± SEM) [1]: 6.7 ± 1.0 mgs
% Inhibition @ 30 μM (Explant) [2]: 58%
IC50 ([2]; Bos taurus, read-out: IC50): > 40 µM

CCCCCCCCCCOc1c(C)c2c3c(c1O[C@@H]1OC[C@@H](O)[C@H](O)[C@H]1O)[C@@H](C)CC[C@@H]3[C@@H](C)C[C@@H]2C=C(C)C [WF 334, Pseudopterosin A Decanyl ether]
% Inhibition (of edema relative to PMA control) [1]: 60.7%
Mean Edema (mgs ± SEM) [1]: 7.0 ± 0.9 mgs
% Inhibition @ 30 μM (Explant) [2]: Inconclusive
IC50 [2]: Inconclusive

CCCCCCCCCCCCCCCCCCOc1c(C)c2c3c(c1O[C@@H]1OC[C@@H](O)[C@H](O)[C@H]1O)[C@@H](C)CC[C@@H]3[C@@H](C)C[C@@H]2C=C(C)C [WF 335, Pseudopterosin A Octadecanyl ether]
% Inhibition (of edema relative to PMA control) [1]: 54.4%
Mean Edema (mgs ± SEM) [1]: 8.0 ± 1.2 mgs
% Inhibition @ 30 μM (Explant) [2]: 27%
IC50 ([2]; Bos taurus, read-out: IC50): > 30 µM

CC(C)=C[C@H]1C[C@H](C)[C@H]2CC[C@H](C)c3c(O[C@@H]4OC[C@@H](O)[C@H](O)[C@H]4O)c(OCCCCO)c(C)c1c32 [WF 336, Pseudopterosin A Butanol ether]
% Inhibition (of edema relative to PMA control) [1]: 69.9%
Mean Edema (mgs ± SEM) [1]: 5.3 ± 0.9 mgs
% Inhibition @ 30 μM (Explant) [2]: 73%
IC50 ([2]; Bos taurus, read-out: IC50): 19 µM

CC(C)=C[C@H]1C[C@H](C)[C@H]2CC[C@H](C)c3c(O[C@@H]4OC[C@@H](O)[C@H](O)[C@H]4O)c(OCC(N)=O)c(C)c1c32 [WF 337, Pseudopterosin A Acetamide ether]
% Inhibition (of edema relative to PMA control) [1]: 52.6%
Mean Edema (mgs ± SEM) [1]: 8.4 ± 1.4 mgs
% Inhibition @ 30 μM (Explant) [2]: 74%
IC50 ([2]; Bos taurus, read-out: IC50): 15 µM

bis pseudopterosin A pentanyl diether [WF 338]
anti-inflammatory activity (in words) ([1]; mouse ear edema, comparison compound): little if any anti-inflammatory activity
% Inhibition (of edema relative to PMA control) [1]: 6.7%
Mean Edema (mgs ± SEM) [1]: 16.5 ± 1.2 mgs
% Inhibition @ 30 μM (Explant) [2]: 0%
inhibition of explant degradation (in words) ([2]; as can be seen from TABLE 2): inhibited explant degradation, except for WF 338
IC50 ([2]; read-out: IC50): > 30 µM

B1: human plasminogen: Plasminogen (from human plasma) was obtained from Athens Research and Technology, Athens, Ga. (protein, UniProt P00747 20-810, looked up)
Plasminogen: EPLDDYVNTQGASLFSVTKKQLGAGSIEECAAKCEEDEEFTCRAFQYHSKEQQCVIMAENRKSSIIIRMRDVVLFEKKVYLSECKTGNGKNYRGTMSKTKNGITCQKWSSTSPHRPRFSPATHPSEGLEENYCRNPDNDPQGPWCYTTDPEKRYDYCDILECEEECMHCSGENYDGKISKTMSGLECQAWDSQSPHAHGYIPSKFPNKNLKKNYCRNPDRELRPWCFTTDPNKRWELCDIPRCTTPPPSSGPTYQCLKGTGENYRGNVAVTVSGHTCQHWSAQTPHTHNRTPENFPCKNLDENYCRNPDGKRAPWCHTTNSQVRWEYCKIPSCDSSPVSTEQLAPTAPPELTPVVQDCYHGDGQSYRGTSSTTTTGKKCQSWSSMTPHRHQKTPENYPNAGLTMNYCRNPDADKGPWCFTTDPSVRWEYCNLKKCSGTEASVVAPPPVVLLPDVETPSEEDCMFGNGKGYRGKRATTVTGTPCQDWAAQEPHRHSIFTPETNPRAGLEKNYCRNPDGDVGGPWCYTTNPRKLYDYCDVPQCAAPSFDCGKPQVEPKKCPGRVVGGCVAHPHSWPWQVSLRTRFGMHFCGGTLISPEWVLTAAHCLEKSPRPSSYKVILGAHQEVNLEPHVQEIEVSRLFLEPTRKDIALLKLSSPAVITDKVIPACLPSPNYVVADRTECFITGWGETQGTFGAGLLKEAQLPVIENKVCNRYEFLNGRVQSTELCAGHLAGGTDSCQGDSGGPLVCFEKDKYILQGVTSWGLGCARPNKPGVYVRVSRFVTWIEGVMRNN
degradation by plasminogen alone (in words) [3]: does not induce any degradation above control levels
degradation by plasminogen alone (in words) ([3]; listed as plasminogen): same results as media alone

B2: IL-1-α: Recombinant Human Interleukin-1-α was obtained from R&D Systems, Minneapolis, Minn. (protein, UniProt P01583 113-271, looked up)
Interleukin-1 alpha: SAPFSFLSNVKYNFMRIIKYEFILNDALNQSIIRANDQYLTAAALHNLDEAVKFDMGAYKSSKDDAKITVILRISKTQLYVTAQDEDQPVLLKEMPEIPKTITGSETNLLFFWETHGTKNYFTSVAHPNLFIATKQDYWVCLAGGPPSITDFQILENQA
35S-GAG release ([3]; IL-1-α 0.4 ng/mL plus plasminogen 0.4 μM, four day assay): approximately 50%
GAG release ([3]; IL-1-α 1 ng/mL plus 0.5 μM plasminogen): greater than 90%
increase in degradation over control ([3]; IL-1-α 2.5 ng/mL, without plasminogen): two-fold increase
release of 35S-labeled GAG ([3]; IL-1-α 10 ng/mL, without plasminogen): ~35%
dose dependence of degradation (in words) ([3]; IL-1-α, without plasminogen): induces degradation in bovine articular cartilage explants in a dose-dependent manner
